By melting point is commonly meant the temperature, or range, at which the solid turns liquid.

In the case of `O=C(O)Cc1cc(Br)c2c(c1)CCC(C(F)(F)F)N2` (centres undefined), the melting point was 111 to 112 °C. In the case of `c1ccc2c(c1)CCN2Nc1ccncc1`, the melting point was 125 to 126 °C. Molecule `CCOC(=O)c1ncn(-c2nn(C)cc2Cl)c1S(N)(=O)=O` came in with a melting point of 167 to 168 °C. Then `O=C(CCCCCCCCCCCNC(=O)OCc1ccccc1)OC(=O)CCCCCCCCCCCNC(=O)OCc1ccccc1`, with 72 to 73 °C; and `COC(=O)NC1=NC(c2ccc(C(C)C)cc2)CCN1` (centres undefined), with 195 to 197 °C; and `COC(=O)c1nc(NC(C)=O)ccc1Oc1cc(OC)cc(OC)n1`, with 128 to 130 °C. `CCCCCCCc1cnc(-c2ccc(OCC(F)CCCCCC)c(F)c2F)nc1` (centres undefined) registered a melting point of 56 °C. `COc1cc(OC)c(-c2csc(N)n2)cc1Cl`: the melting point worked out at 162 °C. `Cc1nc2c(-c3cccc(N4C[C@@H](C)O[C@@H](C)C4)c3)cnn2c(N)c1-c1cccc(Cl)c1` had a melting point of 165 to 167 °C. Regarding `COc1ccc(C)c2nc(Cc3ccc(Cl)cc3)[nH]c12`, the melting point lay within 195 to 197 °C. `COc1ccc(-c2c(C)c(NC(=O)CC(C)(C)C)c(C)c3c2OCC3c2ccc(C(C)C)cc2)cn1` (centres undefined) came in with a melting point of 120 to 123 °C.

Molecule `O=[N+]([O-])c1ccc2[nH]cc(CCCI)c2c1` yielded a melting point of 95 to 98 °C. With `Cn1c2cc(Cl)ccc2c(=O)c2cccn21`, the melting point is 172 to 173 °C. Then `COc1ccnc(CCc2nc3cc(-c4ccc(S(=O)(=O)Nc5ccc(N(C)C)cc5)cc4)cnc3[nH]2)c1`, with 221 to 222 °C; and `O=C([C@H](Cc1ccccc1)NC1CCCCC1)N1CCN(C(c2ccc(F)cc2)c2ccc(F)cc2)CC1`, with 60 to 64 °C; and `N#Cc1cn(Cc2ccccc2)nn1`, with 78 to 79 °C. With `Cc1c(OCC(=O)O)ccc2c(=O)c3c(F)cccc3oc12`, the melting point fell in the range of 259 to 261 °C. The result for `CCOC(=O)Nc1cccc(CBr)c1C(=O)OCC` reads 70 to 72 °C; that for `CC1(CCSc2nc3ccccc3o2)Cn2cc([N+](=O)[O-])nc2O1` (centres undefined), 174 to 175 °C. The result for `ClC[Si](c1ccccc1)(c1ccccc1)c1ccccc1` reads 112 to 115 °C. In turn, `COc1ccc(Cn2c(=O)[nH]c3cc([N+](=O)[O-])ccc3c2=O)cc1` showed a melting point of 244 to 246 °C. As for `CNC(=O)c1cn(C)c2cc(Cl)ccc2c1=O`, the melting point is 260 to 263 °C. The molecule `COc1cc(OC)nc(Oc2cccc3cc(C)oc(=O)c23)n1` displayed a melting point of 188 to 190 °C. `Nc1cc(C(F)(F)F)ccc1NC1CCCCC1` showed a melting point of 70 °C. `N#CC1C(=O)Nc2cc(Cl)ccc2C1=O` (centres undefined): the melting point was 314 to 316 °C. For the molecule `C#CCOc1cc(F)cc(F)c1-n1c(=O)cc(C(F)(F)F)n(C)c1=O`, the melting point fell in the range of 159 to 162 °C. `O=[N+]([O-])c1ccc(NS(=O)(=O)c2cccc3ccccc23)cc1`: the melting point is 210 to 215 °C. As for `FC(F)(F)c1cccc(OC(c2ccc(Cl)cc2)c2ncco2)c1` (centres undefined), the melting point was 66 to 67 °C. For the molecule `C#Cc1cccc(Nc2ncnc3cnc(NC(=O)/C=C/CN(C)C)cc23)c1`, the melting point was in the range of 163 to 166 °C. On to `Cc1cc2c(cc1C)C1(CO2)C(=O)N(Cc2ccccn2)c2ccccc21` (centres undefined), for which the melting point was in the range of 165 to 168 °C. The result for `CSc1nc2ccccc2n2cc(-c3ccccc3)cc12` reads 132 °C; that for `O=C1O[C@@H](c2ccc(F)cc2)[C@@H](Cc2ccc(C(F)(F)F)cc2)N1Cc1cccc2ccccc12` (racemic), 136 to 137 °C; that for `Cc1nnc(N(Cc2ccccc2)C(=O)Cc2ccccc2)s1`, 128 °C.

`Clc1ccc(NC2=Nc3ccccc3CS2)cc1Cl` had a melting point of 207 to 208 °C. `O=C1NCCN1c1nc(-c2ccc(Br)cc2)cs1` displayed a melting point of 230 to 233 °C. As for `COc1c(NC(=O)Nc2ccc(Oc3cc(C)nc(C)n3)c3ccccc23)cc(C(F)(F)F)cc1NS(C)(=O)=O`, the melting point fell in the range of 212 to 213 °C.

`COc1c(N2CCC(c3ccccc3CN)C2)c(F)cc2c(=O)c(C(=O)O)cn(C3CC3)c12` (centres undefined) gave a melting point of 170 to 174 °C. Consider `CC(=CCO)COc1ccc([N+](=O)[O-])cc1`, for which the melting point is 41 to 43 °C. The molecule `CCOC(=O)c1ccc(-c2ccc(OCCO)c(-c3ccc(N(CC)CC)c(C(C)(C)C)c3)c2)cc1` came in with a melting point of 127 °C. Regarding `CON=C(C(=O)NN)c1ccccc1COc1cc(C)ccc1C`, the melting point lay within 124 to 126 °C. `CN1Cc2c(Cl)ncn2-c2ccccc2C1=O` returned a melting point of 193 to 194 °C. Turning to `COc1ccc(N2C(=O)C3=C(CCCC3)C2CC(=O)N2CCCCC2)cc1` (centres undefined), the melting point fell in the range of 101 to 102 °C. Then `COc1cc2c(cc1Nc1ncc(Cl)c(N[C@@H]3CCCC[C@H]3NS(C)(=O)=O)n1)CCOC(=O)N2C`, with 160 to 162 °C. Molecule `Cc1nc(-c2cccc(C(=O)Nc3ccc(Cl)cc3)c2)sc1C(=O)O` showed a melting point of 246 to 248 °C. `Cc1onc(-c2ccccc2)c1-c1[nH]c2ccccc2c1CCCN(C)C` came in with a melting point of 156 to 157 °C.

`CCOc1cc(C(=O)CCCC2CCCCC2)c(OC)cc1C` had a melting point of 37 to 38 °C. `CS(=O)(=O)c1ccc(C(=O)C(=CO)C(=O)C2CC2)c(Cl)c1-c1nccs1` registered a melting point of 176 °C. For the molecule `COc1cc(CCCC2SC(=O)NC2=O)ccc1OCc1csc(-c2ccccc2)n1` (centres undefined), the melting point fell in the range of 123 to 124 °C. As to `COC(=O)NCc1cc(OC)cc(Cl)c1Cl`, the melting point lay within 90 to 91 °C. On to `Cc1sc(-c2ccccc2)nc1COc1ccc(COc2nn(C)cc2CC(=O)O)cn1`, for which the melting point lay within 140 to 141 °C.

`CCCCCCCCCCCCCCOc1ccc2c(C)c(C(=O)O)oc2c1` registered a melting point of 105 to 108 °C.

Regarding `COc1cccc(-c2ccc(-c3ccc(C(=O)O)cc3)cc2-c2ccc3c(c2)C(C)(C)CCC3(C)C)c1`, the melting point was in the range of 116 to 118 °C.

With `CSc1ncnc2c(N(C)C3CCCCC3)nc(Cl)nc12`, the melting point was in the range of 135 to 137 °C. The result for `CNc1nc(CO)ccc1C` reads 87 °C. The result for `OC(CCN1CCC(c2ccc(F)cc2)CC1)c1ccc(Cc2ccc(Cl)cc2)cc1` (centres undefined) reads 94 to 95 °C.

Turning to `N=C(N)Nc1nc(-c2nc(N)n[nH]2)cs1`, the melting point is 173 to 175 °C.

`O=C(CCc1ccccc1)CN1C(=O)CC1S(=O)c1ccccc1` (mixture of isomers) displayed a melting point of 49 to 51 °C. For `Cc1nc(Cl)c2ncn(-c3ccc(C(C)C)cc3Br)c2n1`, the melting point lay within 49 to 52 °C. For `O=C1C(CCO)Oc2ccc(Cl)cc2N1Cc1cccc(Cl)c1` (centres undefined), the melting point lay within 90 to 92 °C. Take `CC1CC2(C)C(CCC3C4CCC(C5(C)OCCO5)C4(C)CC(=O)C32)CC1O` (centres undefined): the melting point fell in the range of 167 to 168 °C.

`Nc1cc(=O)[nH]c(=O)n1Cc1ccncc1`: the melting point was 163 to 168 °C. In the case of `Cc1cccc(C)c1N1CCCNC1=S`, the melting point is 249 to 251 °C. On to `O=C(O)c1ccc2c(=O)n3c(nc2c1)C(=Cc1ccccc1)CC3`, for which the melting point was 382 to 384 °C. In turn, `COC(=O)C(C#N)c1c[nH]c2ccc(OC)cc12` (centres undefined) returned a melting point of 98 to 100 °C.
